Reference: patent US20250082781A1, “METHODS OF LOWERING BLOOD GLUCOSE AND TREATING TYPE 2 DIABETES BY ACTIVATION OF PDE4D3” (Salk Institute for Biological Studies, priority 2021, published 2025)

Key:
serum FFA levels = assay: Serum FFA levels in DIO mice; format: in vivo, mouse; settings: FGF1 0.5 mg/kg s.c.
Description: Mice were kept in 12 h light/dark cycle in a temperature-controlled environment. Mice had free access to food and water unless noted otherwise. C57/B6 mice background was used unless noted otherwise. C57BL/6J and ob/ob (000632-B6. Cg-Lepob/J) male mice were obtained from Jackson Laboratory. PDE4D knock-out mice (034588-UCD) were obtained from MMRRC. For diet-induced obesity (DIO) studies, mice were fed a high fat diet (HFD) (60% fat, F3282; Bio-Serv) for minimum of 12 weeks to induce insulin resistance when diet-induced obese model is used. Insulin levels and blood glucose levels were monitored to confirm insulin resistance. To generate adipose-specific FGFR1 deletion, adiponectin-cre mice (B6; FVB-Tg (Adipoq-cre)1Evdr/J; Stock: 010803) were crossed to Fgfr1 flox/flox (B6.129S4-Fgfr1tm5.1Sor/J; Stock: 00767) mice. For AAV mediated expression of target proteins in adipose tissue, 5×10E+11 genomic copies of AAV were injected via tail vein or retro-orbital route.
Recombinant FGF1 (rFGF1) was dissolved in phosphate-buffered saline (PBS) at a concentration of 0.2 mg/ml and was injected subcutaneously at a 0.5 mg kg^−1 dose. Blood glucose was monitored at indicated time points after injection. For initial measurements (2-4 h) food was removed after injection to exclude any indirect effects stemming from anorexigenic effects of FGF1. PDE4 inhibitor roflumilast stock in DMSO was diluted at 1 mg/ml in 30% captisol, pH 10 and delivered to mice thorough oral gavage at 5 mg kg^−1 dose. PDE3 inhibitor cilostamide stock in DMSO was diluted at 2 mg/ml in 30% captisol and delivered through intraperitoneal injection at 10 mg kg^−1 dose.

hepatic β-oxidation = assay: β-oxidation assay of hepatic mitochondria; format: in vivo, mouse; settings: ob/ob mice 14 h after FGF1 injection
Description: FIGS. 8A-8E: FGF1 decreases hepatic glucose production via controlling metabolic flux to gluconeogenesis. (FIG. 8A) Pyruvate tolerance test (PTT) (left panel) and glycerol tolerance test (Glycerol TT) of overnight-fasted DIO mice 2 h after vehicle (n=6) or FGF1 (n=7) injection (0.5 mg/kg). Data are represented as mean±SEM (*p<0.05, **p<0.01, ***p<0.001). (FIG. 8B) Schematic diagram showing the steps in hepatic glucose production. […] (FIG. 8C) Relative levels of the key metabolites involved in the citric acid cycle as measured by targeted metabolomic profiling. Data are represented as mean±SEM (vehicle n=5; FGF1 n=6). (FIG. 8D) Pyruvate carboxylase, PEPCK and G6Pase levels in livers of overnight fasted ob/ob mice 2 hours after injection of vehicle or FGF1, as measured by Western blot. Protein levels are normalized to actin for quantification (n=6/arm). (FIG. 8E) β-oxidation assay of hepatic mitochondria from ob/ob mice 14 h after Vehicle (PBS) or FGF1 injection. Mitochondria were incubated with BSA-conjugated ^14C palmitate, and released ^14C CO2 was measured by scintillation counting. Data are represented as mean±SEM (n=5/arm).

adipose tissue explants = assay: Ex vivo lipolysis in adipose explants of treated mice; set-up: species or system mouse
Description: For in vitro lipolysis assay, cells were washed with PBS and media were changed to full growth media 1 day before experiment. Cells were serum starved for 2 h and placed in KRBH buffer (30 mM HEPES, 120 mM NaCl, 4 mM KH2PO4, 1 mM MgSO4, 0.75 mM CaCl2), and 10 mM NaHCO3) with 2% fatty acid free BSA and 5 mM glucose. FGF1 was added 10 min before induction of lipolysis with 100 nM isoprotenol (ISO). Inhibitors were added 30 min prior to FGF1 treatment unless otherwise noted. Media were collected and cells were lysed in protein extraction buffer. FFAs were measured in the media using a commercial kit (Wako-NEFAHR2) and normalized to protein concentration. For ex vivo lipolysis, the assay was modified from a published protocol (Funicello et al., 2007). Briefly, approximately 0.1 gram of adipose tissue was excised, weighed and kept in cold PBS until treatment and control tissues were collected. Tissues were cut into small pieces and incubated in same KRBH buffer as described above for 4 h. FFAs were measured and normalized by the explant weights.

FGF1: Recombinant fibroblast growth factor 1 protein, dissolved in PBS, injected subcutaneously
serum FFA levels (serum FFA levels; overnight fasted DIO adR1KO mice): failed to affect adR1KO mice | reduction of serum FFA levels (serum FFA levels; overnight fasted DIO adR1WT mice, 30 min): ~30% | hepatic β-oxidation (hepatic β-oxidation): absence of any change | lipolysis in brown adipose tissue (adipose tissue explants; BAT explants, chow-fed mice, 6 h after FGF1 0.5 mg/kg): did not affect lipolysis in brown adipose tissue | FGF1 suppression of lipolysis in adipose explants under PDE4 inhibition (adipose tissue explants; DIO mice gavaged with PDE4 inhibitor 1 h prior to FGF1 injection): blocked the ability of FGF1 to suppress lipolysis | ex vivo lipolysis (adipose tissue explants; gWAT and iWAT explants, DIO adR1WT vs adR1KO, 2 h after FGF1 0.5 mg/kg): suppressed
